Like-named read-outs stand apart in the source and are kept apart here.
Assays:
[1] = target: T1, SARS-CoV-1 Mpro (Severe acute respiratory syndrome-related coronavirus, UniProt P0C6X7); test: biochemical
[2] = target: T2, SARS-CoV-2 Mpro (Severe acute respiratory syndrome coronavirus 2, UniProt P0DTD1); test: rhodamine-based substrate peptide activity assay; assay type: biochemical
[3] = target: T3, MERS-CoV Mpro (Betacoronavirus England 1, UniProt K9N7C7); test: biochemical
[4] = target: T3, MERS-CoV Mpro; test: biochemical; remark: listed apart in the source
[5] = target: T2, SARS-CoV-2 Mpro; test: biochemical
[6] = target: T4, PorCoV-HKU15 Mpro (Porcine coronavirus HKU15, UniProt H9BQY4); details: covalent
T4 sequence (H9BQY4 2509-2811 limits assumed): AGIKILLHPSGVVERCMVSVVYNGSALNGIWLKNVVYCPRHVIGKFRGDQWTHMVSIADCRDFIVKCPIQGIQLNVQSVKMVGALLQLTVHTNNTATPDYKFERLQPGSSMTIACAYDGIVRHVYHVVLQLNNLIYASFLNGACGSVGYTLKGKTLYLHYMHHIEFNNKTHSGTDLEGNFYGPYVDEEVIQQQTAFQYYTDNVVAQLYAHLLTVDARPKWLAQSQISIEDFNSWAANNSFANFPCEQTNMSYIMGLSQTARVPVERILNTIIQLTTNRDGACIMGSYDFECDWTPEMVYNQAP

[7] = target: T5, HCoV-NL63 Mpro (Human coronavirus NL63, UniProt P0C6X5); test: biochemical
Target sequence in this assay (P0C6X5 2940-3242 limits assumed): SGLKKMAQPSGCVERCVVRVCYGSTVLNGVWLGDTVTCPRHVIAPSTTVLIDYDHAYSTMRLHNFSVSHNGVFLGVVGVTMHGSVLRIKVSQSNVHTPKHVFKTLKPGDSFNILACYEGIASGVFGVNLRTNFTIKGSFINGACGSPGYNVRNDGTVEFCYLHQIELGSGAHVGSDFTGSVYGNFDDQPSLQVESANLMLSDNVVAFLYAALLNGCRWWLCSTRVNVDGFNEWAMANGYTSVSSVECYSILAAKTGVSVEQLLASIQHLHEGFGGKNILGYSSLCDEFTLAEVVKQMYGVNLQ

[8] = target: T6, HCoV-229E Mpro (Human coronavirus 229E, UniProt P0C6X1); test: biochemical
Target sequence in this assay (P0C6X1 2966-3267 limits assumed): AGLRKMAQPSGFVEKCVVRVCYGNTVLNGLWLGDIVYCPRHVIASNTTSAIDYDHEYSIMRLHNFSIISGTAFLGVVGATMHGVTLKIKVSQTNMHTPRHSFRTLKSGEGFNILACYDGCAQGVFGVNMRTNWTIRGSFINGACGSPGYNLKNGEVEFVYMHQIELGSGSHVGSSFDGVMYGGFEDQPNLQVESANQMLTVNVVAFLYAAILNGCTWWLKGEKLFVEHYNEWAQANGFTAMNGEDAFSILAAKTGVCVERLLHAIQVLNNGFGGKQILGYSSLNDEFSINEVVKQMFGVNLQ

[9] = target: T7, HCoV-HKU1 Mpro (Human coronavirus HKU1 (isolate N1), UniProt P0C6X2); test: biochemical
Target sequence in this assay (P0C6X2 3335-3637 limits assumed): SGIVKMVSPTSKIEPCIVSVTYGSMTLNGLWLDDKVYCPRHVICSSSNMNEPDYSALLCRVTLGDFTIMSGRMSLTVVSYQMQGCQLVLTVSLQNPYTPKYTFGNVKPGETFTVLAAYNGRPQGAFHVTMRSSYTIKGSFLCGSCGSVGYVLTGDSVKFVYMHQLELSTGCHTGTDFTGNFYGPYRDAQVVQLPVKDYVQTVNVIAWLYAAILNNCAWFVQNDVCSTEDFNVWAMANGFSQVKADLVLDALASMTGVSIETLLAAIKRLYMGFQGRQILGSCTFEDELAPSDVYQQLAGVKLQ

[10] = target: T3, MERS-CoV Mpro; test: biochemical; remark: listed apart in the source
[11] = target: T7, HCoV-HKU1 Mpro; test: biochemical; remark: listed apart in the source
Target sequence in this assay (P0C6X2 3335-3637): as the sequence (P0C6X2 3335-3637 limits assumed) above

[12] = target: T6, HCoV-229E Mpro; test: biochemical; remark: listed apart in the source
Target sequence in this assay (P0C6X1 2966-3267): as the sequence (P0C6X1 2966-3267 limits assumed) above

[13] = target: T2, SARS-CoV-2 Mpro; test: biochemical; remark: listed apart in the source
[14] = target: T5, HCoV-NL63 Mpro; test: biochemical; remark: listed apart in the source
Target sequence in this assay (P0C6X5 2940-3242): as the sequence (P0C6X5 2940-3242 limits assumed) above

[15] = target: T4, PorCoV-HKU15 Mpro; details: covalent; remark: listed apart in the source
[16] = target: T2, SARS-CoV-2 Mpro; test: Mpro substrate activity assay; assay type: biochemical
[17] = target: T7, HCoV-HKU1 Mpro; test: RapidFire MS substrate peptide activity assay; assay type: biochemical
Target sequence in this assay (P0C6X2 3335-3637): as the sequence (P0C6X2 3335-3637 limits assumed) above

[18] = target: T1, SARS-CoV-1 Mpro; test: biochemical; remark: listed apart in the source
[19] = target: T5, HCoV-NL63 Mpro; test: RapidFire MS substrate peptide activity assay; assay type: biochemical
Target sequence in this assay (P0C6X5 2940-3242): as the sequence (P0C6X5 2940-3242 limits assumed) above

[20] = target: HCoV-OC43 Mpro (Human coronavirus OC43, UniProt P0C6X6); test: RapidFire MS substrate peptide activity assay; assay type: biochemical
Chain of HCoV-OC43 Mpro (P0C6X6 3247-3549): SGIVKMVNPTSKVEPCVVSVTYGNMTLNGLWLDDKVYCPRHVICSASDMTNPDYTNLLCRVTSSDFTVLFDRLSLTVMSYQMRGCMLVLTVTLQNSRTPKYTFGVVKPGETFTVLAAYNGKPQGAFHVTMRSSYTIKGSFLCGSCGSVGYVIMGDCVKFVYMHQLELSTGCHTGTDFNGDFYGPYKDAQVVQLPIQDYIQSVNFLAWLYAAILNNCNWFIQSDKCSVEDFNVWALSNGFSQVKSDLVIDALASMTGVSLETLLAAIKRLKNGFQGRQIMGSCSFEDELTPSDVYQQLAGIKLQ

[21] = target: T6, HCoV-229E Mpro; test: RapidFire MS substrate peptide activity assay; assay type: biochemical
Target sequence in this assay (P0C6X1 2966-3267): as the sequence (P0C6X1 2966-3267 limits assumed) above

[22] = target: T2, SARS-CoV-2 Mpro; test: RapidFire MS substrate peptide activity assay; assay type: biochemical
[23] = target: avian infectious bronchitis virus (IBV) Mpro (Avian infectious bronchitis virus (strain Beaudette), UniProt P0C6Y1); test: RapidFire MS substrate peptide activity assay; assay type: biochemical
Chain of avian infectious bronchitis virus (IBV) Mpro (P0C6Y1 2780-3086): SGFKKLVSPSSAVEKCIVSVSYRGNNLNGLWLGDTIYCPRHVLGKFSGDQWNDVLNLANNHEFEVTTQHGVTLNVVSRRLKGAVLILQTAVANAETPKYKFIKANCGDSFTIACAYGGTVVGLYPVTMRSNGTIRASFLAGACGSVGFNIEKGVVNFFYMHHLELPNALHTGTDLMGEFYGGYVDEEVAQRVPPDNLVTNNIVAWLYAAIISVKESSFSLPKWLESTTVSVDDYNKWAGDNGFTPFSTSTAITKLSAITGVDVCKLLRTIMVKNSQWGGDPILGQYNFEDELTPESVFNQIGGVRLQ

[24] = read-out: HW-1-87A (trans), covalent
[25] = read-out: PM-2-20A (trans), covalent
[26] = read-out: PM-2-27A (trans), covalent
[27] = read-out: hidden head, 8th column, covalent

T3 sequence (K9N7C7 3248-3553 limits assumed): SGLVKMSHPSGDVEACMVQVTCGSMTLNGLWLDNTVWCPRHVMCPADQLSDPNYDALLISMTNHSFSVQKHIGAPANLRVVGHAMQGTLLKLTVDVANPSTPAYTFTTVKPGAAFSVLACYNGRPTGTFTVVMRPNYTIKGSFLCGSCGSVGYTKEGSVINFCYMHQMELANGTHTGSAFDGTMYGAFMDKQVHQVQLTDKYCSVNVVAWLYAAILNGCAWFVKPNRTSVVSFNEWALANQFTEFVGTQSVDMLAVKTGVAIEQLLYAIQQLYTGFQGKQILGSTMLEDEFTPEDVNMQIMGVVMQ

Structure (SMILES): O=C(CCl)N1N=C(c2ccccc2)CC1c1cccc2nccnc12 (racemic) [EN82]
- IC50 [1]: 59 nM
- IC50 [2]: 91 nM
- IC50 [3]: 560 nM

Structure (SMILES): O=C(CCl)N1N=C(c2ccccc2)[C@H](c2ccccc2)[C@H]1c1ccc2nccnc2c1 (relative stereo) [HW-1-87A (trans)]
- IC50 [4, 24]: 340 nM
- IC50 [5, 24]: 85 nM
- IC50 ([6]; read-out: HW-1-87A (trans)): 4900 nM
- IC50 [7, 24]: 140 nM
- IC50 [8, 24]: 30 nM
- IC50 [9, 24]: 40 nM

Structure (SMILES): O=C(CCl)N1N=C(c2ccccc2)[C@H](c2ccccc2)[C@@H]1c1ccc2nccnc2c1 (relative stereo) [HW-1-187B, cis-HW-1-187B]
- IC50 [2]: 22 nM
- IC50 [10]: 1300 nM
- IC50 [11]: 16 nM
- IC50 [12]: 2.3 nM
- IC50 [13]: 1.4 nM
- IC50 [14]: 56 nM
- IC50 ([15]; read-out: HW-1-187B (cis)): 6300 nM

Structure (SMILES): O=C(CCl)N1N=C(c2cc(Cl)ccc2F)[C@H](c2ccccc2)[C@@H]1c1ccc2nccnc2c1 (relative stereo) [HW-2-010B]
- IC50 [2]: 14 nM

Structure (SMILES): O=C(CCl)N1N=C(c2ccccc2)[C@H](c2ccccc2)[C@H]1c1ccccc1 (relative stereo) [PM-2-20A (trans)]
- IC50 [4, 25]: 3700 nM
- IC50 [5, 25]: 28 nM
- IC50 ([6]; read-out: PM-2-20A (trans)): 4800 nM
- IC50 [7, 25]: 67 nM
- IC50 [8, 25]: 3.6 nM
- IC50 [9, 25]: 36 nM

Structure (SMILES): O=C(CCl)N1N=C(c2ccccc2)[C@H](c2ccccc2)[C@@H]1c1ccccc1 (relative stereo) [PM-2-020B, cis-PM-02-020B]
- IC50 [2]: 62 nM
- IC50 [10]: 2800 nM
- IC50 [11]: 200 nM
- IC50 [12]: 23 nM
- IC50 [13]: 5.3 nM
- IC50 [14]: 350 nM
- IC50 ([15]; read-out: PM-2-20B (cis)): 1100 nM

Structure (SMILES): O=C(CCl)N1N=C(c2ccccc2)[C@H](c2ccccc2)[C@H]1c1cccc2nccnc12 (relative stereo) [PM-2-27A (trans)]
- IC50 [4, 26]: 3300 nM
- IC50 [5, 26]: 110 nM
- IC50 ([6]; read-out: PM-2-27A (trans)): 5400 nM
- IC50 [7, 26]: 92 nM
- IC50 [8, 26]: 46 nM
- IC50 [9, 26]: 60 nM

Structure (SMILES): C=CS(=O)(=O)N1N=C(c2cc(Cl)ccc2F)[C@H](c2ccccc2)[C@@H]1c1ccc2nccnc2c1 (relative stereo) [PM-2-071B]
- IC50 [2]: 91 nM

Structure (SMILES): O=C(CCl)N1N=C(c2ccccc2)C[C@H]1c1cccc2nccnc12 [(S)-EN82]
- IC50 [16]: 2700 nM

Structure (SMILES): C=CS(=O)(=O)N1N=C(c2cc(Cl)ccc2F)[C@@H](c2ccccc2)[C@H]1c1ccc2nccnc2c1 [(S,S)-PM-2-071, (S,S)-enantiomer of PM-2-071B]
- IC50 [2]: 35 nM

Structure (SMILES): O=C(CCl)N1N=C(c2cccc(Cl)c2)CC1c1cccc2nccnc12 (stereo not drawn) [LEB-2-172]
- IC50 [4]: 38 nM
- IC50 [5]: 0.89 nM
- IC50 [7]: 11 nM
- IC50 [8]: 5.5 nM
- IC50 [9]: 0.96 nM

Structure (SMILES): O=C(CCl)N1N=C(c2cc(F)cc(Cl)c2)CC1c1cccc2nccnc12 (stereo not drawn) [LEB-3-004]
- IC50 [4]: 100 nM
- IC50 [5]: 1.6 nM
- IC50 ([6]; read-out: LEB-3-004): 2100 nM
- IC50 [7]: 25 nM
- IC50 [8]: 5.3 nM
- IC50 [9]: 2.3 nM

Structure (SMILES): O=C(CCl)N1N=C(c2ccccc2)CC1c1cccnc1 (stereo not drawn) [NJH-1-147]
- IC50 [4]: 7200 nM
- IC50 [5]: 58 nM
- IC50 ([6]; read-out: hidden head, 7th column): 11000 nM
- IC50 [7]: 330 nM
- IC50 [8]: 54 nM
- IC50 [9]: 26 nM

Structure (SMILES): O=C(CCl)N1N=C(c2ccccc2)CC1c1ccnc2[nH]ccc12 (stereo not drawn) [NJH-1-159]
- IC50 [4, 27]: 960 nM
- IC50 [5, 27]: 20 nM
- IC50 ([6]; read-out: hidden head, 8th column): 9300 nM
- IC50 [7, 27]: 110 nM
- IC50 [8, 27]: 19 nM
- IC50 [9, 27]: 8.9 nM

Structure (SMILES): C=CS(=O)(=O)N1N=C(c2cc(Cl)ccc2F)C(c2ccccc2)C1c1ccc2nccnc2c1 (stereo not drawn) [PM-2-071]
- IC50 [17]: < 2 nM
- IC50 [18]: < 1000 nM
- IC50 [19]: < 1000 nM
- IC50 [20]: < 2 nM
- IC50 [21]: < 1000 nM
- IC50 [22]: < 2 nM
- IC50 [23]: < 1000 nM
